Read-outs that look alike come from different tables or passages of the source.
Tests used:
[1] = target: T1, lipoxygenase (Rattus norvegicus, UniProt P12527); experiment: Inhibition of lipoxygenase derived from rat basophilic leukemia (RBL-1) cells, formation of products 5,12-di-HETE (L1) and 5-HETE (L2); assay type: biochemical
T1 construct: Single cell suspensions of RBL-1 cells are homogenized to obtain the microsomal fraction containing lipoxygenase and cyclooxygenase; endogenous in cells; host or cells: RBL-1 (rat basophilic leukemia) cells, homogenate / microsomal fraction
T1 sequence (P12527 1-673): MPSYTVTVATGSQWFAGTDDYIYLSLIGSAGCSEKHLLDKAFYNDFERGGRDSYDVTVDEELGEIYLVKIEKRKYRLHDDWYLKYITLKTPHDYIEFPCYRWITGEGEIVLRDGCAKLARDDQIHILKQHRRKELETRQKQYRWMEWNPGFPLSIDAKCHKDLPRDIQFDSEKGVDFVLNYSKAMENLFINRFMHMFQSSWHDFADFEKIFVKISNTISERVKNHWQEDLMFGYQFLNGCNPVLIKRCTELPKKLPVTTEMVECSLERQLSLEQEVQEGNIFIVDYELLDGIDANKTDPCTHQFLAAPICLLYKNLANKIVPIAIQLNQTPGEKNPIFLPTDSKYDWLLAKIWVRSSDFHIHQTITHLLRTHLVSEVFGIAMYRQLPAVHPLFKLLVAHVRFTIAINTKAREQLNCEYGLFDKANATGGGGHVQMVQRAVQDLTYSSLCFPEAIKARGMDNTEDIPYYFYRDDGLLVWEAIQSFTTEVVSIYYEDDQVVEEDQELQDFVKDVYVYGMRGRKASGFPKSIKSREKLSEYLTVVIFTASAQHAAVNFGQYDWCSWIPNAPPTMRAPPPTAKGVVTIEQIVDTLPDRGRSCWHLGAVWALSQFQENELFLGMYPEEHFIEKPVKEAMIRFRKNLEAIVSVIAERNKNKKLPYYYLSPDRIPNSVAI
Experimental: (§1) The primary screening test used is a determination of the inhibition of lipoxygenase and cyclooxygenase derived from rat basophilic leukemia (RBL-1) cells. The test was carried out according to the following procedure:
(§2) Single cell suspensions of RBL-1 cells are homogenized to obtain the microsomal fraction containing lipoxygenase and cyclooxygenase. Test compounds are added to the enzyme-containing homogenate for a 5 min preincubation period at 37° C. prior to the addition of ^14 C-arachidonic acid substrate. Following incubation at 37° C. for 15 min, the reaction is stopped by the addition of 2M formic acid and the enzyme-substrate products are extracted into chloroform. An aliquot of the extract is evaporated to dryness, reconstituted in ether to 1/10 original volume, spotted on thin layer chromatography plates and chromatographed. The peak areas of radioactivity representing the products are located by scanning the plates. The quantity of products formed is estimated by measuring the height of the radioactivity peaks observed on the chromatographic scans. Alternatively, the areas of radioactivity are scraped from the plate and the ^14 C quantitated by scintillation counting.

[2] = target: T2, cyclooxygenase (Rattus norvegicus, UniProt Q63921); experiment: Inhibition of cyclooxygenase derived from rat basophilic leukemia (RBL-1) cells, formation of product PDG2 (C1); assay type: biochemical; details: RBL-1 homogenate; for IC50: C1, PDG2; for inhibition at 1 µM: dose of 1 μM, 5 min preincubation, 15 min incubation at 37° C, read-out: In vitro % Inhibition, C1 (cyclooxygenase product formation)
T2 construct: Single cell suspensions of RBL-1 cells are homogenized to obtain the microsomal fraction containing lipoxygenase and cyclooxygenase; endogenous in cells; host or cells: RBL-1 (rat basophilic leukemia) cells, homogenate / microsomal fraction
T2 sequence (Q63921 27-602): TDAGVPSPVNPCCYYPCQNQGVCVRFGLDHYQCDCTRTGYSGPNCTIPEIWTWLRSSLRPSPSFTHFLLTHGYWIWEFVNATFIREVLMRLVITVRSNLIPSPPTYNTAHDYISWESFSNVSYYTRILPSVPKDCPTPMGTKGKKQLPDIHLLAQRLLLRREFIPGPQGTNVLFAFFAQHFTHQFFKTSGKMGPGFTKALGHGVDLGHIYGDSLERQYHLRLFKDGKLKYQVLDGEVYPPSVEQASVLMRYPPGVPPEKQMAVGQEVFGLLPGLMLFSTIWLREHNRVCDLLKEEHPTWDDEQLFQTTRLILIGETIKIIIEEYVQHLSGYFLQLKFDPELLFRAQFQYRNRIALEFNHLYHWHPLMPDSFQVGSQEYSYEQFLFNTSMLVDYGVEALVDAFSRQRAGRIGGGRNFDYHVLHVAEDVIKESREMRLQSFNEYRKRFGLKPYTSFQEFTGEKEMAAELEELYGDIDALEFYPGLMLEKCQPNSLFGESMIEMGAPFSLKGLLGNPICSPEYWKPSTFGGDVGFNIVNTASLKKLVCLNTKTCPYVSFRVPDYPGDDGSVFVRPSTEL
Experimental: as §1, §2

[3] = test system: STS-A component of immunologically induced bronchoconstriction; experiment: Effect on the STS-A component of immunologically induced bronchoconstriction in guinea pigs; assay type: in vivo; details: 4 hrs., at 1 mg/kg orally, indomethacin + chlorpheniramine medicated, antigen challenge
Experimental: The test was carried out according to the following procedure:
Two weeks after immunization with egg albumin, guinea pigs are prepared for bronchoconstriction determination. One hour prior to antigen challenge, each animal is dosed orally with indomethacin and chlorpheniramine. Animals are anesthetized with sodium pentobarbital, the trachea cannulated and the animal artifically respired. Arachidonic acid is administered intravenously prior to antigen challenge. The resulting bronchoconstriction is recorded by the standard lung overflow procedure and the peak increase in intratracheal pressure (mm Hg) over a 10 minute observation period is recorded. Compounds are evaluated for their ability to prevent the increased intratracheal pressure in an experimental group of animals as compared to the medicated (indomethacin+chlorpheniramine+arachidonic acid) control group. The results are expressed in terms of percent inhibition or as ED50 values (efffective dose in 50% of the animals).

[4] = IC50, L1 (lipoxygenase product 5,12-di-HETE formation), L1, 5,12-di-HETE, RBL-1 homogenate
[5] = IC50, L2 (lipoxygenase product 5-HETE formation), L2, 5-HETE, RBL-1 homogenate
[6] = read-out: In vitro % Inhibition, L1 (lipoxygenase product 5,12-di-HETE formation)
[7] = read-out: In vitro % Inhibition, L2 (lipoxygenase product 5-HETE formation)

SMILES | IC50 [1, 4] [nM] | IC50 [1, 5] [nM] | inhibition at 1 µM [1, 6] [%] | inhibition at 1 µM [1, 7] [%] | IC50 [2] [nM] | inhibition at 1 µM [2] [%] | inhibition at 1 µM ([1]; L1, 5,12-di-HETE, dose of 1 μM, RBL-1 homogenate, 5 min preincubation, 15 min incubation at 37° C, read-out: In vitro % Inhibition, L1 (lipoxygenase product 5,12-di-HETE formation)) [%] | inhibition at 1 µM ([1]; L2, 5-HETE, dose of 1 μM, RBL-1 homogenate, 5 min preincubation, 15 min incubation at 37° C, read-out: In vitro % Inhibition, L2 (lipoxygenase product 5-HETE formation)) [%] | In vivo Guinea Pig % inhib. (increased intratracheal pressure, bronchoconstriction) [3] [%]
CCOC(=O)c1ccccc1Nc1ccc(O)c(Cl)c1 [Example 5c, Ethyl 2-(3-chloro-4-hydroxyphenylamino)benzoate] | 670 | 300 | 90 | 99 | > 1000 | 26 | – | – | –
CCOC(=O)c1ccccc1Nc1ccc(O)cc1C [Example 4c, Ethyl 2-(4-hydroxy-2-methylphenylamino)benzoate] | – | – | – | – | – | 0 | 60 | 76 | –
CCOC(=O)c1cc(OC)ccc1Nc1ccc(O)cc1 [Example 3d, Ethyl 2-(4-hydroxyphenylamino)-5-methoxybenzoate] | 110 | 100 | 90 | 91 | > 1000 | 18 | – | – | 42
CCOC(=O)c1ccccc1Nc1ccc(O)cc1 [Example 2b, Ethyl 2-(4-hydroxyphenylamino)benzoate] | 340 | 250 | 77 | 93 | > 1000 | 19 | – | – | 38
CCOC(=O)c1ccccc1Nc1ccccc1O [Example 1d, Ethyl 2-(2-hydroxyphenylamino)benzoate] | 160 | 100 | 95 | 98 | 320 | 34 | – | – | –
